From PMC5375023 (Neurochemistry international, 2017)
Like-named read-outs stand apart in the source and are kept apart here.

Tests used:
[1] = system: BDNF mRNA in CCF-STTG1 cells; assay: qPCR of BDNF steady-state mRNA; type: cell-based, human; conditions: 3 hr
CCF-STTG1 cells = assay: BDNF secretion by in situ ELISA, CCF-STTG1; conditions: for BDNF secretion from CCF-STTG1 cells, compound alone: 72 hrs treatment
U87MG cells = assay: BDNF secretion by in situ ELISA, U87MG; conditions: 72 hrs treatment
BV-2 cells = assay: BDNF secretion by in situ ELISA, BV-2; type: cell-based, murine; conditions: 10 μM
human S1R [2] = target: T1, human S1R (Homo sapiens, UniProt Q99720); assay: Competition binding with [3H]-
T1 sequence (Q99720 whole entry): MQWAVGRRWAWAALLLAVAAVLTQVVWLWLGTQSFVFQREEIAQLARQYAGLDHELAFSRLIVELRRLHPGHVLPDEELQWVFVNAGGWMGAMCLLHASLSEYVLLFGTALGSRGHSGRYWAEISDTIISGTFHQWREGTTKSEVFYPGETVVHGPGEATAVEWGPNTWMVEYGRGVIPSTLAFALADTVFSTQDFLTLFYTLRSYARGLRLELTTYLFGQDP

human S2R = human S2R (Homo sapiens, UniProt Q5BJF2); assay: Competition binding with [3H]DTG at S2R in untransfected MCF-7 cells; conditions: for IC50: read-out: IC50 at S2R; for IC50 / Ki: MCF-7, ± SEM; for Ki: read-out: Ki at S2R
Sequence of human S2R (Q5BJF2 whole entry): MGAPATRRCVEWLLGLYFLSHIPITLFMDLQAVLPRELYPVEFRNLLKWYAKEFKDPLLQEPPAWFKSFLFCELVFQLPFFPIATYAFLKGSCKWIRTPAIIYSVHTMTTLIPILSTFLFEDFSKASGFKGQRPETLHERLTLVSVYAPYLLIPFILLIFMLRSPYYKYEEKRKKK

EP2R = conditions: 10 μM; ref af Forselles et al., 2011; cited from earlier work
human S1R [3] = target: T1, human S1R; conditions: ref Lee et al., 2008, cited from earlier work
ischemic stroke = conditions: acute low dose 0.05 mg/kg, s.c., rats; ref Schetz et al., 2007; cited from earlier work
[4] = 15 nM, Fractional Occupancy = [ligand]/([ligand]+Ki)

## OC(CCCN1CCC(O)(c2ccc(Cl)cc2)CC1)c1ccc(F)cc1 (racemic) [reduced haloperidol, (±)-4-(4-Chlorophenyl)-α-(4-fluorophenyl)-4-hydroxy-1-piperidinebutanol]
[1]; 10 μM
  effect on BDNF mRNA levels: no effect on BDNF mRNA levels
CCF-STTG1 cells
  BDNF secretion from CCF-STTG1 cells, compound alone: facilitated BDNF secretion
U87MG cells
  BDNF secretion from U87MG cells, compound alone: facilitated BDNF secretion

## c1ccc(CCCCN2CCC(c3ccccc3)CC2)cc1 [4-PPBP]
[1]; 10 μM
  effect on BDNF mRNA levels: no effect on BDNF mRNA levels
CCF-STTG1 cells
  BDNF secretion from CCF-STTG1 cells, compound alone: facilitated BDNF secretion
BV-2 cells
  BDNF secretion from BV-2 cells, compound alone: failed to significantly stimulate the secretion of detectable levels of BDNF
BV-2 cells; BV-2 cells, P = 0.4
  BDNF signal above DMSO vehicle: 1.1 ± 0.06 fold

## CN1CCN(CCc2ccc(Cl)c(Cl)c2)CC1 [BD1063]
CCF-STTG1 cells
  BDNF secretion from CCF-STTG1 cells, compound alone: no effect on its own
CCF-STTG1 cells; S1R-selective dose of BD1063
  effect on PGE2-stimulated BDNF response mediated by EP2R: does not modify the PGE2 stimulated response
CCF-STTG1 cells; antagonist 15 nM
  effect on BDNF secretion produced by S1R agonists 4-PPBP and (+)-SKF10047: significantly reduced BDNF secretion
CCF-STTG1 cells; antagonist BD1063 co-applied
  effect on BDNF secretion produced by haloperidol metabolites I and II: significantly diminished BDNF secretion
Human S1R [2]; 2 nM
  expected S1R occupancy: 27%
Human S1R [2]; [4]
  calculated S1R occupancy: 74%
Human S1R [2]; S1R over S2R
  Ki(S2R)/Ki(S1R) selectivity: 37 fold
Human S1R [2]; read-out: IC50 at S1R, [3H]-(+)-pentazocine, MCF-7-S1R, ± SEM
  IC50: 6.5 ± 0.87 nM
Human S1R [2]; read-out: Ki at S1R, [3H]-(+)-pentazocine, MCF-7-S1R, ± SEM
  Ki: 5.3 ± 0.71 nM
Human S2R; [4]
  calculated S2R occupancy: 7%
Human S2R; [3H]-DTG
  IC50: 208 ± 30 nM
  Ki: 194 ± 28 nM

## C=C[C@@]1(C)CC(=O)[C@]2(O)[C@@]3(C)[C@@H](O)CCC(C)(C)[C@@H]3[C@H](O)[C@H](OC(C)=O)[C@@]2(C)O1 [Forskolin]
[1]; 100 μM forskolin + 100 μM IBMX, normalized to vehicle
  increase in BDNF mRNA levels: > 3 fold

## CC(C)Cn1c(=O)n(C)c(=O)c2[nH]cnc21 [IBMX]
[1]; 100 μM
  effect on BDNF mRNA levels: no effect on BDNF mRNA levels

## CCCN(CCC)CCc1ccc(OC)c(OCCc2ccccc2)c1 [NE100]
Human S2R; [3H]-DTG
  IC50: 46 ± 6.4 nM
  Ki: 43 ± 6 nM

## COc1ccc2cc(OCC3(C(=O)O)CN(C(=O)c4ccc(F)cc4)C3)ccc2c1 [PF-04418948]
CCF-STTG1 cells
  BDNF secretion from CCF-STTG1 cells, compound alone: no effect by itself
CCF-STTG1 cells; antagonist 10 μM vs PGE2
  effect on PGE2-stimulated BDNF secretion: blocked the stimulatory effect of PGE2
EP2R
  EP2 receptor occupancy: 99.9%

## CCCCC[C@H](O)/C=C/[C@H]1[C@H](O)CC(=O)[C@@H]1C/C=C\CCCC(=O)O [PGE2, Prostaglandin E2]
CCF-STTG1 cells; 10 μM, ± SEM, n = 6 experiments, baseline 75.4 ± 6.9
  secreted BDNF, maximal stimulation: 128.6 ± 12.8 pg/mL
CCF-STTG1 cells
  BDNF secretion from CCF-STTG1 cells, compound alone: secreted BDNF in a concentration-dependent manner
Human S1R [2]; 10 μM, [3H]-(+)-pentazocine
  displacement of specifically bound radioligand from S1R: unable to displace
Human S2R; 10 μM, [3H]-DTG
  displacement of specifically bound radioligand from S2R: unable to displace

## CN1CCN(C2=Nc3cc(Cl)ccc3Nc3ccccc32)CC1 [clozapine]
Human S1R [3]
  affinity for the S1R, in words: essentially no affinity

## OC1(c2ccc(Cl)cc2)CCNCC1 [haloperidol metabolite I, 4-(4-Chlorophenyl)-4-hydroxypiperidine]
[1]; 100 μM
  effect on BDNF mRNA levels: no effect on BDNF mRNA levels
CCF-STTG1 cells
  BDNF secretion from CCF-STTG1 cells, compound alone: facilitated BDNF secretion
Human S1R [3]; read-out: affinity (Ki) for the S1R
  Ki: 128 nM
Human S1R [3]
  fold lower affinity for the S1R than haloperidol and reduced haloperidol: > 75 fold
U87MG cells
  BDNF secretion from U87MG cells, compound alone: facilitated BDNF secretion

## O=C(O)CCC(=O)c1ccc(F)cc1 [haloperidol metabolite III, 3-(4-Fluorobenzoyl)propionic acid]
Human S1R [3]
  affinity for the S1R, in words: essentially no detectable affinity

## O=C(CCCN1CCC(O)(c2ccc(Cl)cc2)CC1)c1ccc(F)cc1 [haloperidol, Haloperidol]
CCF-STTG1 cells
  BDNF secretion from CCF-STTG1 cells, compound alone: but not haloperidol, facilitated BDNF secretion
U87MG cells
  BDNF secretion from U87MG cells, compound alone: but not haloperidol, facilitated BDNF secretion
Ischemic stroke
  protection against ischemic stroke: protected rats against an ischemic stroke

## (+)-SKF10047
CCF-STTG1 cells
  BDNF secretion from CCF-STTG1 cells, compound alone: facilitated BDNF secretion
